{"source": "patent US20160346249A1", "about": "(priority 2012, published 2016)", "assay": "Single rising oral dose (10-150 mg IR) safety, tolerance and pharmacokinetics in healthy male volunteers", "assay_type": "in vivo, human", "conditions": "human, plasma, oral; for MRT inf: read-out: MRT0-∞; for AUC(0-t): read-out: AUC0-t", "excerpt": "Fifty (50) healthy male adult volunteers, between the ages of 19 and 43 years (mean±SD: 28±6 years) were enrolled in the study and randomized to the […] different treatments. […] The subjects were divided into panels of 10 subjects/dose group. Seven subjects in each group received the test drug, while three received an identical-looking placebo. […] The five treatments are outlined below:\nThe subjects were admitted to the clinic the night before dose administration and fasted from approximately 10 hour before to 4 hour after ingestion of the study capsules. Treatments were administered with 240 mL of mineral water between 08:00 and 09:00 hours. […] The assay calibration range was 5 to 2,000 ng/mL.\nThe values of Cmax and Tmax were the observed value for each subject. The terminal elimination rate constant λz was derived from the log-linear disposition phase of the concentration-time curve using linear least-squares regression for which the program determined the appropriate number of terminal points to calculate λz. At least three terminal plasma concentrations were used for estimating λz. The t1/2 (HL_Lambda_z) was calculated as ln 2/λz. AUC0-t and AUMC0-t were determined using the linear trapezoidal rule for each increasing concentration and the log-trapezoidal rule for descending concentrations. The AUC values from the last quantifiable time point to infinity was calculated as Ct/λz. This value was added to AUC0-t to obtain AUC0-∞. […] Oral clearance was calculated as Dose/AUC0-∞. The 90% confidence intervals were calculated for all of the variables.\nSAS, version 8.2, was used for the analysis.", "note": "Read-outs that look alike come from different tables or passages of the source."}
{"smiles": "Clc1ccc([C@]23CNC[C@H]2C3)cc1Cl", "note": "[amitifadine, (+)-1-(3,4-dichlorophenyl)-3-azabicyclo[3.1.0]hexane]", "values": [{"measurement": "half-life", "setting": "10 mg, individual subject, read-out: t1/2 (converted)", "value": 3.47, "unit": "h"}, {"measurement": "MRT inf", "setting": "25 mg, individual subject", "value": 4.81, "unit": "h"}, {"measurement": "AUC(0-inf)", "setting": "50 mg, individual subject", "value": 1690, "unit": "ng·h/mL"}, {"measurement": "MRT inf", "setting": "50 mg, individual subject", "value": 5.18, "unit": "h"}, {"measurement": "half-life", "setting": "50 mg, individual subject, read-out: t1/2 (converted)", "value": 3.25, "unit": "h"}, {"measurement": "AUC(0-inf)", "setting": "100 mg, individual subject", "value": 5010, "unit": "ng·h/mL"}, {"measurement": "AUC(0-t)", "setting": "100 mg, individual subject", "value": 4960, "unit": "ng·h/mL"}, {"measurement": "MRT inf", "setting": "100 mg, individual subject", "value": 4.92, "unit": "h"}, {"measurement": "half-life", "setting": "100 mg, individual subject, read-out: t1/2 (converted)", "value": 3.94, "unit": "h"}, {"measurement": "AUC(0-inf)", "setting": "150 mg, individual subject", "value": 7300, "unit": "ng·h/mL"}, {"measurement": "AUC(0-t)", "setting": "150 mg, individual subject", "value": 7210, "unit": "ng·h/mL"}, {"measurement": "MRT inf", "setting": "150 mg, individual subject", "value": 5.67, "unit": "h"}, {"measurement": "AUC(0-inf)", "setting": "male, 10 mg, Geometric Mean", "value": 418, "unit": "ng·h/mL"}, {"measurement": "AUC(0-t)", "setting": "male, 10 mg, Geometric Mean", "value": 377, "unit": "ng·h/mL"}, {"measurement": "MRT inf", "setting": "male, 10 mg, Geometric Mean", "value": 5.21, "unit": "h"}, {"measurement": "Tmax", "setting": "male, 10 mg, Geometric Mean, read-out: Tmax", "value": 0.696, "unit": "h"}, {"measurement": "half-life", "setting": "male, 10 mg, Geometric Mean, read-out: t1/2 (converted)", "value": 3.4, "unit": "h"}, {"measurement": "AUC(0-inf)", "setting": "male, 10 mg, Mean (n = 7)", "value": 429, "unit": "ng·h/mL"}, {"measurement": "AUC(0-t)", "setting": "male, 10 mg, Mean (n = 7)", "value": 387, "unit": "ng·h/mL"}, {"measurement": "MRT inf", "setting": "male, 10 mg, Mean (n = 7)", "value": 5.23, "unit": "h"}, {"measurement": "half-life", "setting": "male, 10 mg, Mean (n = 7), read-out: t1/2 (converted)", "value": 3.42, "unit": "h"}, {"measurement": "AUC(0-inf)", "setting": "male, 10 mg, Median", "value": 454, "unit": "ng·h/mL"}, {"measurement": "AUC(0-t)", "setting": "male, 10 mg, Median", "value": 409, "unit": "ng·h/mL"}, {"measurement": "MRT inf", "setting": "male, 10 mg, Median", "value": 5.35, "unit": "h"}, {"measurement": "half-life", "setting": "male, 10 mg, Median, read-out: t1/2 (converted)", "value": 3.47, "unit": "h"}, {"measurement": "AUC(0-inf)", "setting": "male, 25 mg, Geometric Mean", "value": 1430, "unit": "ng·h/mL"}, {"measurement": "AUC(0-t)", "setting": "male, 25 mg, Geometric Mean", "value": 1340, "unit": "ng·h/mL"}, {"measurement": "MRT inf", "setting": "male, 25 mg, Geometric Mean", "value": 4.79, "unit": "h"}, {"measurement": "Tmax", "setting": "male, 25 mg, Geometric Mean, read-out: Tmax", "value": 0.863, "unit": "h"}, {"measurement": "half-life", "setting": "male, 25 mg, Geometric Mean, read-out: t1/2 (converted)", "value": 2.97, "unit": "h"}, {"measurement": "AUC(0-inf)", "setting": "male, 25 mg, Mean (n = 7)", "value": 1470, "unit": "ng·h/mL"}, {"measurement": "AUC(0-t)", "setting": "male, 25 mg, Mean (n = 7)", "value": 1390, "unit": "ng·h/mL"}, {"measurement": "MRT inf", "setting": "male, 25 mg, Mean (n = 7)", "value": 4.83, "unit": "h"}, {"measurement": "half-life", "setting": "male, 25 mg, Mean (n = 7), read-out: t1/2 (converted)", "value": 3.15, "unit": "h"}, {"measurement": "AUC(0-inf)", "setting": "male, 25 mg, Median", "value": 1300, "unit": "ng·h/mL"}, {"measurement": "AUC(0-t)", "setting": "male, 25 mg, Median", "value": 1190, "unit": "ng·h/mL"}, {"measurement": "MRT inf", "setting": "male, 25 mg, Median", "value": 4.65, "unit": "h"}, {"measurement": "half-life", "setting": "male, 25 mg, Median, read-out: t1/2 (converted)", "value": 3, "unit": "h"}, {"measurement": "AUC(0-inf)", "setting": "male, 50 mg, Geometric Mean", "value": 2420, "unit": "ng·h/mL"}, {"measurement": "AUC(0-t)", "setting": "male, 50 mg, Geometric Mean", "value": 2320, "unit": "ng·h/mL"}, {"measurement": "MRT inf", "setting": "male, 50 mg, Geometric Mean", "value": 5.23, "unit": "h"}, {"measurement": "Tmax", "setting": "male, 50 mg, Geometric Mean, read-out: Tmax", "value": 1.02, "unit": "h"}, {"measurement": "half-life", "setting": "male, 50 mg, Geometric Mean, read-out: t1/2 (converted)", "value": 3.65, "unit": "h"}, {"measurement": "AUC(0-inf)", "setting": "male, 50 mg, Mean (n = 7)", "value": 2490, "unit": "ng·h/mL"}, {"measurement": "AUC(0-t)", "setting": "male, 50 mg, Mean (n = 7)", "value": 2390, "unit": "ng·h/mL"}, {"measurement": "MRT inf", "setting": "male, 50 mg, Mean (n = 7)", "value": 5.25, "unit": "h"}, {"measurement": "half-life", "setting": "male, 50 mg, Mean (n = 7), read-out: t1/2 (converted)", "value": 3.68, "unit": "h"}, {"measurement": "AUC(0-inf)", "setting": "male, 50 mg, Median", "value": 2200, "unit": "ng·h/mL"}, {"measurement": "AUC(0-t)", "setting": "male, 50 mg, Median", "value": 2120, "unit": "ng·h/mL"}, {"measurement": "MRT inf", "setting": "male, 50 mg, Median", "value": 5.29, "unit": "h"}, {"measurement": "Tmax", "setting": "male, 50 mg, Median, read-out: Tmax", "value": 1, "unit": "h"}, {"measurement": "half-life", "setting": "male, 50 mg, Median, read-out: t1/2 (converted)", "value": 3.62, "unit": "h"}, {"measurement": "AUC(0-inf)", "setting": "male, 100 mg, Geometric Mean", "value": 4850, "unit": "ng·h/mL"}, {"measurement": "AUC(0-t)", "setting": "male, 100 mg, Geometric Mean", "value": 4780, "unit": "ng·h/mL"}, {"measurement": "MRT inf", "setting": "male, 100 mg, Geometric Mean", "value": 5.7, "unit": "h"}, {"measurement": "half-life", "setting": "male, 100 mg, Geometric Mean, read-out: t1/2 (converted)", "value": 4.15, "unit": "h"}, {"measurement": "AUC(0-inf)", "setting": "male, 100 mg, Mean (n = 7)", "value": 4880, "unit": "ng·h/mL"}, {"measurement": "AUC(0-t)", "setting": "male, 100 mg, Mean (n = 7)", "value": 4810, "unit": "ng·h/mL"}, {"measurement": "MRT inf", "setting": "male, 100 mg, Mean (n = 7)", "value": 5.75, "unit": "h"}, {"measurement": "half-life", "setting": "male, 100 mg, Mean (n = 7), read-out: t1/2 (converted)", "value": 4.15, "unit": "h"}, {"measurement": "AUC(0-inf)", "setting": "male, 100 mg, Median", "value": 4820, "unit": "ng·h/mL"}, {"measurement": "AUC(0-t)", "setting": "male, 100 mg, Median", "value": 4730, "unit": "ng·h/mL"}, {"measurement": "MRT inf", "setting": "male, 100 mg, Median", "value": 5.69, "unit": "h"}, {"measurement": "half-life", "setting": "male, 100 mg, Median, read-out: t1/2 (converted)", "value": 4.22, "unit": "h"}, {"measurement": "AUC(0-inf)", "setting": "male, 150 mg, Geometric Mean", "value": 8490, "unit": "ng·h/mL"}, {"measurement": "AUC(0-t)", "setting": "male, 150 mg, Geometric Mean", "value": 8360, "unit": "ng·h/mL"}, {"measurement": "MRT inf", "setting": "male, 150 mg, Geometric Mean", "value": 5.97, "unit": "h"}, {"measurement": "Tmax", "setting": "male, 150 mg, Geometric Mean, read-out: Tmax", "value": 1.63, "unit": "h"}, {"measurement": "half-life", "setting": "male, 150 mg, Geometric Mean, read-out: t1/2 (converted)", "value": 3.64, "unit": "h"}, {"measurement": "AUC(0-inf)", "setting": "male, 150 mg, Mean (n = 7)", "value": 8620, "unit": "ng·h/mL"}, {"measurement": "AUC(0-t)", "setting": "male, 150 mg, Mean (n = 7)", "value": 8510, "unit": "ng·h/mL"}, {"measurement": "MRT inf", "setting": "male, 150 mg, Mean (n = 7)", "value": 6.04, "unit": "h"}, {"measurement": "half-life", "setting": "male, 150 mg, Mean (n = 7), read-out: t1/2 (converted)", "value": 3.71, "unit": "h"}, {"measurement": "AUC(0-inf)", "setting": "male, 150 mg, Median", "value": 8010, "unit": "ng·h/mL"}, {"measurement": "AUC(0-t)", "setting": "male, 150 mg, Median", "value": 7940, "unit": "ng·h/mL"}, {"measurement": "MRT inf", "setting": "male, 150 mg, Median", "value": 5.87, "unit": "h"}, {"measurement": "half-life", "setting": "male, 150 mg, Median, read-out: t1/2 (converted)", "value": 3.68, "unit": "h"}, {"measurement": "half-life", "setting": "male, 10 to 150 mg, read-out: elimination half-life", "value": "3 to 4", "unit": "h"}, {"measurement": "Tmax", "setting": "male, 10 to 150 mg, read-out: mean Tmax", "value": "0.7 to 1.75", "unit": "h"}, {"measurement": "MRT", "setting": "male, 10 to 150 mg, read-out: mean residence time", "value": "5 to 6", "unit": "h"}]}
